Measured values as given in patent publication US20110200531A1, “TREATMENT AND DIAGNOSIS OF CENTRAL NERVOUS SYSTEM DISORDERS” (THE REGENTS OF THE UNIVERSITY OF CALIFORNIA, priority 2009, published 2011).
“Also recorded” adds a separate entry of the source.

Assays:
[1] = tested on: Primary neurons treated with Aβ1-42; test: Neuronal survival in primary neuronal cultures treated with pre-aggregated Aβ1-42; type: cell-based, C57BL mice; settings: 50 μM TMP with pre-aggregated Aβ1-42
Description: Primary neurons prepared from postnatal 1 day C57BL mice were treated with pre-aggregated Aβ1-42 combined with either 50 μM TMP or equal volume of vehicle at day 5 after plating. […] Nuclei were counterstained as blue by Hoechst 33342 (Hoec). Scale bar=100 μm in b & e; 80 μm a, d, f; 60 μm in c; and 40 μm in B.

3×Tg-AD mice = test: Learning and memory in 3×Tg AD mice (novel object recognition, Morris water maze); type: in vivo; settings: 16-month old 3×Tg-AD females
Description: Both 16-month old 3×Tg-AD and background-matched wild type (WT) mice (females) were fed with TMPcontaining or nutrients matched control for 60 days as described in FIG. 3. (A) On day 61, all the mice were tested for object recognition as previously described. Briefly, mice (n=14 for each group) were habituated to a 60×30 cm container for 5 min. Two identical objects were placed in the bottom of the cage as mirror images of each other. The animal was trained for 5 min followed by a 5 min retention interval in the home cage. Then one of the objects in the test container was replaced with a novel object. During the 3-min probe trial, the mouse was placed in the cage and time spent investigating both objects was measured. A recognition index (R1) score is depicted as: (TimeN (in seconds for novel object)/TimeTotal (in seconds for both old and novel objects))×100. (B-D) Starting on day 62, all the mice were trained for 9 days on the Morris water maze (MWM) exactly as described for the behavior testing. […] (C) MWMprobe trial for number of platform location crosses, and (D) MWM probe trial for time spent in the target quadrant. As shown by the p values, (*) indicates significant improvement by TMP treatments with respect to the corresponding controls.
FIG. 21A-D: Improvement of learning and memory in aged 3×Tg AD mice by TMP treatment. Novel object recognition task was performed. A recognition index (R1) score is depicted as: [TimeN (in seconds for novel object)/TimeTotal (in seconds for both old and novel objects)]×100. B-D Starting on day 62, all the mice were trained for 9 days on the Morris water maze (MWM) for the behavior testing. […] (C) MWM probe trial for number of platform location crosses, and (D) MWM probe trial for time spent in the target quadrant. As shown by the p values, (*) indicates significant improvement by the compound treatments with respect to the corresponding controls.
TMP improves pathology in brains of 3×Tg-AD mice and results in increased memory and learning (See FIGS. 3, 4, and 10). In these mice, the earliest pathological hallmark is the accumulation of intraneuronal Aβ in the hippocampus, cortex and amygdala in 4 month old 3×Tg-AD homozygous mice. […] Between 4-6 months of age 3×Tg-AD homozygous mice develop diffuse amyloid plaques in the neocortex. At 6 months the retention deficits are associated with significant impairments in spatial learning of the Morris Water Maze task. […] Brain and retina pathology was evaluated by immunohistochemistry with specific antibodies and learning and memory performance were scored using the Novel Object Recognition Task and using Morris Water Maze trials.
The ability of TMP-N to improve learning and memory in 3×Tg AD mice was assessed using novel object recognition task. […]

Thy1.2 promoter = test: Luciferase-mediated Thy1.2 activity reporter in N2A cells; type: cell-based, mouse; settings: TMP 50 μM, 24 hr
5×FAD mouse brains = test: Abeta immunoreactivity (6E10) in 5×FAD mouse brains; type: in vivo, mice; settings: chow containing 300 mg/Kg from postnatal day 61 for 4 months
Description: Animal tissues were perfused with 1×PBS followed by overnight fixation in 4% paraformaldehyde in cold room. Vibrotome sections (˜50 μm thick) were immunostained with 6E10 antibody, which recognizes all forms of Abeta, and visualized by fluorescence microscopy.

cells under stress = test: Production of peroxides in cells under stress; type: cell-based
[2] = tested on: rat brains following kainate-induced seizures; test: Neuronal degeneration in rat brains following kainate-induced seizures (H&E, TUNEL); type: in vivo, Sprague-Dawley rats; settings: KA 10.5 mg/Kg s.c., TMP 50 mg/Kg s.c. 1 hr after onset of seizures
Description: One month-old Sprague-Dawley rats were subcutaneously (s.c.) administrated kainite (KA) (10.5 mg/Kg). 1 hr after the onset of seizures animals were given TMP (50 mg/Kg, s.c.) or equal volume of vehicle. All the animals were sacrificed 24 hr after TMP or vehicle injection under deep anesthesia. […] Scale bar=100 μm in b, d, e, g, i, j, 1, n and o; and 400 μm in a, c, f, h, k and m.

3×Tg-AD mouse brain = test: Brain pathology in 3×Tg-AD mice fed TMP-containing diet; type: in vivo
Description: (A) 16-month old triple-transgenic mice (3×Tg-AD, females) were fed with TMP containing (300 mg TMP/Kg diet) or nutrients-matched control diet made by BioSery (Frenchtown, N.J.) for 70 days. […] Animals were euthanized and perfused with PBS following behavioral analyses. Half the brain was fixed with 4% paraformaldehyde (PFA) in 1×PBS and sectioned using a microtome at 40 μm, while the other half-brain was dissected and rapidly frozen for biochemical analyses. […] The boxed areas in (a) is shown in (b) at higher magnification. […] The boxed areas in a & c are shown in b & d at higher magnification. Nuclei were stained as red by propidium iodide (PI). Scale bar=400 μm in A.a&c; 100 μm in B.a&c; 80 μm A.d&e, B.d; and 60 μm in A.b, B.b. (C) Glutathione (GSH) contents in the mouse brains were measured in the cortical lysates prepared from the 3×Tg AD mouse brains following TMP treatments or control using a Biovison Glutathione colorimetric detection kit. Lysates from age-matched untreated wild type mouse brains were used as controls (WT).
In these mice, the earliest pathological hallmark is the accumulation of intraneuronal Aβ in the hippocampus, cortex and amygdala in 4 month old 3×Tg-AD homozygous mice. […] Between 4-6 months of age 3×Tg-AD homozygous mice develop diffuse amyloid plaques in the neocortex. At 6 months the retention deficits are associated with significant impairments in spatial learning of the Morris Water Maze task. 16 Month old triple-transgenic female mice (3×Tg-AD) were fed TMP-containing (300 mg TMP/kg diet) or nutrients-matched control diet made by Biosery for 70 days. Brain and retina pathology was evaluated by immunohistochemistry with specific antibodies and learning and memory performance were scored using the Novel Object Recognition Task and using Morris Water Maze trials.

retinas of 3×Tg-AD mice = test: Retinal pathology in 3×Tg-AD mice; type: in vivo

Cc1nc(C)c(C)nc1C [TMP, tetramethylpyrazine]
mitochondrial depolarization (TMRM staining) [1]: very few cells | neuronal survival / morphological changes showing neuronal degeneration (DIC microscopy) ([1]; 24 hr): promotes neuronal survival; also recorded: not in these cells in the presence of TMP | Morris water maze (MWM) acquisition performance (3×Tg-AD mice; TMP diet 60 days, trained 9 days from day 62): significantly improved the performance of 3×Tg-AD mice | learning and memory (object recognition, MWM probe trials) (3×Tg-AD mice; TMP-containing diet): significant improvements in learning and memory; also recorded: improves learning and memory | Thy1.2 activity (luciferase-positive cells relative to all transfected cells) (Thy1.2 promoter): no influence of TMP on Thy1.2 activity | Abeta immunoreactivity / deposits in brain (6E10) (5×FAD mouse brains): reduction Abeta immunoreactivity | production of peroxides (cells under stress): inhibits the production of peroxides | Quantification of TUNEL-positive cells in the hippocampal regions ([2]; 24 hr): significant less number of damaged neurons | neuronal damage/degeneration by H&E and TUNEL staining, hippocampal and piriform cortex regions ([2]; sacrificed 24 hr after): attenuates neuronal degeneration; also recorded: only exhibited a few sporadic pink (1) and TUNEL-positive cells | GFAP staining (astrocyte activation, astrogliosis) in brain (3×Tg-AD mouse brain; 300 mg TMP/Kg diet, 70 days): dramatically reduced Aβ accumulation and senile plaques as well as astrogliosis; also recorded: reduced intensity of GFAP staining | Glutathione (GSH) contents in cortical lysates (3×Tg-AD mouse brain; 300 mg TMP/Kg diet, 70 days, colorimetric kit): significantly increase GSH contents | adverse effects on the health of animals (3×Tg-AD mouse brain; 300 mg TMP/Kg diet, about 40~50 mg/Kg daily per os, 70 days): no adverse effects on the health of animals have been observed | BACE-related APP cleavage and Aβ accumulation in brains (3×Tg-AD mouse brain; 3×Tg AD mouse brains): reduces BACE-related APP cleavage and Aβ accumulation | Aβ staining / Aβ accumulation and senile plaques in brain (immunohistochemistry) (3×Tg-AD mouse brain; 16-month old females, 300 mg TMP/Kg diet, about 40~50 mg/Kg daily per os, 70 days, 50 mg/kg): dramatically reduced Aβ accumulation and senile plaques; also recorded: markedly reduced levels of Aβ staining | Astrocytic activation in the retinas (retinas of 3×Tg-AD mice): inhibited | Aβ plaques in the retinas (retinas of 3×Tg-AD mice): significantly reduces the number if Aβ plaques | fibril and oligomer conformations of Aβ (retinas of 3×Tg-AD mice): reduces both fibril and oligomer conformations of Aβ | retinal pathologies associated with disease (retinas of 3×Tg-AD mice): beneficial effects
